Patent US20250177334A1, “Pharmaceutical Compositions Comprising Phenylsulfonamides, and Their Therapeutic Applications” (Cura Therapeutics, LLC, priority 2018, published 2025)
Values joined by “and” are separate entries in the source; they are usually repeats but may differ in a detail not shown here. Equal values may be shown once. Read-outs that look alike come from different tables or passages of the source. Blank lines part the entries; values can stand above or below the molecule they belong to.

Assays:
[1] = Metabolic stability in fresh human plasma (LC/MS/MS peak heights); type: in vitro ADME; conditions: for Peak Height: duplicate aliquots; for % Remaining: plasma
Experimental: Compounds A1-A3 were independently spiked directly into an individual lot of fresh human plasma, with sodium heparin as the anticoagulant, such that the final assay concentration of each compound was 1.00 μM. After incubation at room temperature for 0, 0.5, 1, 2, and 4 hours, samples were removed and aliquoted for analysis. Valacyclovir was used as a positive control. The plasma samples containing a test compound were processed by protein precipitation.
A primary 1.00 mM stock solution of a test compound was prepared in either acetonitrile or acetonitrile:water (1:1, v/v). A 0.200 mM working stock was made from the primary stock in acetonitrile water (1:1, v/v), which was used in the human plasma stabiltity study. The primary and working stock solutions were stored at −20° C. when not in use. When it was used in the assay, the working stock was kept at room temperature for as short a time as possible.
The human plasma stabiltity study was initiated by adding 5.00 μL of a test compound stock solution to 0.995 mL of human plasma (sodium heparin) in a 1.7-mL snap tube. Time zero points were generated by immediately removing duplicate 50.0 μL aliquots of plasma after initiating each incubation and quenching in 150 μL of methanol. The plasma incubation tubes were capped and remained at room temperature between time points.
After 0.5, 1, 2, and 4 hours of incubation, duplicate 50.0 μL aliquots of plasma were removed and placed into the extraction tubes containing 150 μL of methanol. Each time point was immediately extracted by vortex mixing, centrifuged, and the supernate removed to HPLC vial for analysis. After extraction of all samples, the extracts were analyzed by LC/MS/MS.
LC/MS/MS analysis of the incubation solutions was conducted by initial separation of a test compound peak using chromatography prior to detection by a mass spectrometer. The LC/MS system was comprised of a HPLC coupled with a TQS-Micro or Quattro Premier. The mobile phase was nebulized using heated nitrogen in a Z-spray source/interface set to electrospray in either positive ionization mode or negative ionization mode. The ionized compounds were detected using MS/MS. The data was acquired using MassLynx.
The peak heights for compounds A1-A3 are presented in Table 1, whereas the peak heights for the positive control are shown in Table 2.

[2] = Pharmacokinetic study of compound A2 in rats; type: in vivo
Experimental: A pharmacokinetic study on compound A2 was carried out in rats.

[3] = Compound A2 concentration in the CSF of rats; type: in vivo
Experimental: Compound A2 in the CSF of the rats was also analyzed. The results are shown in Table 4 below, wherein BQL stands for below the quantifiable limit of 2.0 ng/mL.

[4] = fresh human plasma, 1.00 μM, room temperature, 0 h
[5] = fresh human plasma, 1.00 μM, room temperature, 0.5 h
[6] = fresh human plasma, 1.00 μM, room temperature, 4 h

Mean Height [1, 4]: 21,400 | Peak Height [1, 4]: 21,201 and 21,603 | Mean Height [1, 5]: 20,700 | Peak Height [1, 5]: 21,055 and 20,329 | Mean Height ([1]; fresh human plasma, 1.00 μM, room temperature, 1 h): 20,500 | Peak Height ([1]; fresh human plasma, 1.00 μM, room temperature, 2 h): 19,941 and 19,624 | Mean Height [1, 6]: 17,700 | Peak Height [1, 6]: 17,697 and 17,785 | Mean Height ([1]; human, 2 h, 1 μM): 19,800 | % Remaining ([1]; human, 0 h, 1 μM): 100% | % Remaining ([1]; human, 0.5 h, 1 μM): 96.7% | % Remaining ([1]; human, 1 h, 1 μM): 95.8% | % Remaining ([1]; human, 2 h, 1 μM): 92.5% | % Remaining ([1]; human, 4 h, 1 μM): 82.7%
Compound: CC(C)[C@H](N)C(=O)OCCOCn1cnc2c(=O)[nH]c(N)nc21 [Valacyclovir, reference compound]

Mean Height ([1]; human, 0 h, 1 μM): 4,250 | Mean Height ([1]; human, 0.5 h, 1 μM): 3,740 | Mean Height ([1]; human, 1 h, 1 μM): 3,680 | Mean Height ([1]; human, 2 h, 1 μM): 3,510 | Mean Height ([1]; human, 4 h, 1 μM): 3,670 | % Remaining ([1]; human, 0 h, 1 μM): 100% | % Remaining ([1]; human, 0.5 h, 1 μM): 88% | % Remaining ([1]; human, 1 h, 1 μM): 87% | % Remaining ([1]; human, 2 h, 1 μM): 83% | % Remaining ([1]; human, 4 h, 1 μM): 86%
Compound: CS(=O)(=O)Nc1cccc(NS(=O)(=O)c2ccc(C(=O)O)cc2)c1 [Compound A1, 4-(N-(3-(methylsulfonamido)phenyl)sulfamoyl)benzoic acid]

Mean Height ([1]; human, 0 h, 1 μM): 4,210 | Mean Height ([1]; human, 0.5 h, 1 μM): 4,100 | Mean Height ([1]; human, 1 h, 1 μM): 3,660 | Mean Height ([1]; human, 2 h, 1 μM): 3,440 | Mean Height ([1]; human, 4 h, 1 μM): 3,850 | % Remaining ([1]; human, 0 h, 1 μM): 100% | % Remaining ([1]; human, 0.5 h, 1 μM): 97% | % Remaining ([1]; human, 1 h, 1 μM): 87% | % Remaining ([1]; human, 2 h, 1 μM): 82% | % Remaining ([1]; human, 4 h, 1 μM): 91%
Compound: COc1cc(NS(=O)(=O)c2cccc(C(=O)O)c2)cc(OC)c1 [Compound A3, 3-(N-(3,5-dimethoxyphenyl)sulfamoyl)benzoic acid]

Mean Height ([1]; human, 0 h, 1 μM): 12,600 | Mean Height ([1]; human, 0.5 h, 1 μM): 13,300 | Mean Height ([1]; human, 1 h, 1 μM): 13,000 | Mean Height ([1]; human, 2 h, 1 μM): 13,000 | Mean Height ([1]; human, 4 h, 1 μM): 13,100 | % Remaining ([1]; human, 0 h, 1 μM): 100% | % Remaining ([1]; human, 0.5 h, 1 μM): 106% | % Remaining ([1]; human, 1 h, 1 μM): 103% | % Remaining ([1]; human, 2 h, 1 μM): 103% | % Remaining ([1]; human, 4 h, 1 μM): 104% | AUCINF/Dose ([2]; IV): 13800 | CL or CL/F ([2]; IV): 1.2 mL/min/kg | HL ([2]; IV): 5 h | AUCINF/Dose ([2]; PO): 6420 | HL ([2]; PO): 7 h | AUC(0-inf) ([2]; rat, in vivo, 1 mg/kg, IV): 13800 ng·h/mL | AUC(0-t) ([2]; rat, in vivo, 1 mg/kg, IV): 13400 ng·h/mL | Cmax ([2]; rat, in vivo, 1 mg/kg, IV): 4310 ng/mL | AUC(0-inf) ([2]; rat, in vivo, 10 mg/kg, PO): 64200 ng·h/mL | AUC(0-t) ([2]; rat, in vivo, 10 mg/kg, PO): 56200 ng·h/mL | Cmax ([2]; rat, in vivo, 10 mg/kg, PO): 4590 ng/mL | Tmax ([2]; rat, in vivo, 10 mg/kg, PO): 4 h | bioavailability ([2]; rat, in vivo, 10 mg/kg, PO): 45% | CL/F ([2]; rat, in vivo, 10 mg/kg, PO, read-out: CL or CL/F): 2.6 mL/min/kg | CSF Concentration ([3]; IV, 1.0 h, individual animals): 4.2 ng/mL and 17 ng/mL | CSF Concentration ([3]; PO, 1.0 h, individual animals): 5.3 ng/mL and 32 ng/mL and 6.7 ng/mL | CSF Concentration ([3]; PO, 2.0 h, individual animals): 2.8 ng/mL and 3.1 ng/mL | CSF Concentration ([3]; PO, 4.0 h, individual animals): 139 ng/mL and 56 ng/mL | CSF Concentration ([3]; PO, 12 h, individual animals): 1.5 ng/mL and 11 ng/mL | concentration at 1 h ([3]; rat, CSF, iv, 1 mg/kg, 1.0 h, mean): 11 ng/mL | concentration at 0.5 h ([3]; rat, CSF, iv, 1 mg/kg, IV, 0.5 h, mean, read-out: CSF Concentration, Mean): 33 ng/mL | concentration at 2 h ([3]; rat, CSF, iv, 1 mg/kg, IV, 2.0 h, individual animals, read-out: CSF Concentration): 4.9 ng/mL | concentration at 2 h ([3]; rat, CSF, iv, 1 mg/kg, IV, 2.0 h, mean, read-out: CSF Concentration, Mean): 4.9 ng/mL | concentration at 4 h ([3]; rat, CSF, iv, 1 mg/kg, IV, 4.0 h, individual animals, read-out: CSF Concentration): 15 ng/mL | concentration at 4 h ([3]; rat, CSF, iv, 1 mg/kg, IV, 4.0 h, mean, read-out: CSF Concentration, Mean): 15 ng/mL | concentration at 8 h ([3]; rat, CSF, iv, 1 mg/kg, IV, 8.0 h, individual animals, read-out: CSF Concentration): 1.4 ng/mL | concentration at 8 h ([3]; rat, CSF, iv, 1 mg/kg, IV, 8.0 h, mean, read-out: CSF Concentration, Mean): 1.4 ng/mL | concentration at 1 h ([3]; rat, CSF, po, 10 mg/kg, 1.0 h, mean): 15 ng/mL | concentration at 12 h ([3]; rat, CSF, po, 10 mg/kg, 12 h, mean): 6.5 ng/mL | concentration at 0.5 h ([3]; rat, CSF, po, 10 mg/kg, PO, 0.5 h, individual animals, read-out: CSF Concentration): 2.7 ng/mL | concentration at 0.5 h ([3]; rat, CSF, po, 10 mg/kg, PO, 0.5 h, mean, read-out: CSF Concentration, Mean): 3.5 ng/mL | concentration at 2 h ([3]; rat, CSF, po, 10 mg/kg, PO, 2.0 h, individual animals, read-out: CSF Concentration): 3.6 ng/mL | concentration at 2 h ([3]; rat, CSF, po, 10 mg/kg, PO, 2.0 h, mean, read-out: CSF Concentration, Mean): 3.2 ng/mL | concentration at 4 h ([3]; rat, CSF, po, 10 mg/kg, PO, 4.0 h, mean, read-out: CSF Concentration, Mean): 97.4 ng/mL | concentration at 8 h ([3]; rat, CSF, po, 10 mg/kg, PO, 8.0 h, mean, read-out: CSF Concentration, Mean): 11 ng/mL | concentration at 24 h ([3]; rat, CSF, po, 10 mg/kg, PO, 24 h, individual animals, read-out: CSF Concentration): 2 ng/mL | concentration at 24 h ([3]; rat, CSF, po, 10 mg/kg, PO, 24 h, mean, read-out: CSF Concentration, Mean): 2 ng/mL
Compound: Cc1ccc(C(F)(F)F)cc1NS(=O)(=O)c1cccc(C(=O)O)c1 [Compound A2, 3-(N-(2-methyl-5-(trifluoromethyl)phenyl)sulfamoyl)benzoic acid]
CSF Concentration ([3]; IV, 0.00 h, individual animals): BQL (BQL stands for below the quantifiable limit of 2.0 ng/mL) | CSF Concentration ([3]; IV, 0.5 h, individual animals): 65 ng/mL and 0.95 ng/mL and BQL (BQL stands for below the quantifiable limit of 2.0 ng/mL) | CSF Concentration ([3]; IV, 2.0 h, individual animals): BQL (BQL stands for below the quantifiable limit of 2.0 ng/mL) | CSF Concentration ([3]; IV, 8.0 h, individual animals): BQL (BQL stands for below the quantifiable limit of 2.0 ng/mL) | CSF Concentration ([3]; IV, 12 h, individual animals): BQL (BQL stands for below the quantifiable limit of 2.0 ng/mL) | CSF Concentration ([3]; IV, 24 h, individual animals): BQL (BQL stands for below the quantifiable limit of 2.0 ng/mL) | CSF Concentration ([3]; PO, 0.00 h, individual animals): BQL (BQL stands for below the quantifiable limit of 2.0 ng/mL) | CSF Concentration ([3]; PO, 0.5 h, individual animals): 4.3 ng/mL and BQL (BQL stands for below the quantifiable limit of 2.0 ng/mL) | CSF Concentration ([3]; PO, 8.0 h, individual animals): BQL (BQL stands for below the quantifiable limit of 2.0 ng/mL) and 1.6 ng/mL and 20 ng/mL | CSF Concentration ([3]; PO, 24 h, individual animals): BQL (BQL stands for below the quantifiable limit of 2.0 ng/mL)
